These results are taken from article PMC7063992, “Opossum Cathelicidins Exhibit Antimicrobial Activity Against a Broad Spectrum of Pathogens Including West Nile Virus” (Frontiers in Immunology, 2020).

Common to all, as to format: cell-based
The test system of series [1] is Human primary keratinocytes. As to the kind of experiment: Viability of keratinocytes, XTT. The note with it: 24 h, XTT. From the text: The Ethics Committee of the Poitiers Hospital approved the use of human skin samples for research studies. All subjects provided written informed consent in accordance with the tenets of the Declaration of Helsinki. Normal abdominal or breast skin samples were obtained from patients undergoing plastic surgery and thoroughly washed with PBS free of calcium and magnesium (PBS; Gibco, Thermo Fisher Scientific, Waltham, MA, United States) after fat removal. The skin samples were minced into fragments of approximately 125 mm^2, using scalpel blades. Skin samples were incubated overnight at 4°C in a dispase solution (25 U/mL; Life Technologies, Carlsbad, CA, United States). Epidermal sheets were removed from the dermis, and keratinocytes were dissociated via trypsin digestion (trypsin-EDTA; Gibco) for 15 min at 37°C. The cell suspension was then filtered through a 280-μm sterile filter. DMEM (Gibco) supplemented with 10% (vol/vol) of FBS (Gibco) was added, and the suspension was centrifuged at 300 × g and 25°C for 10 min. Keratinocytes were seeded at a density of 10^7 cells in 75-cm^2 tissue culture flask in keratinocyte-serum free medium (K-SFM; Invitrogen, Carlsbad, CA, United States) supplemented with bovine pituitary extract (25 μg/mL; Invitrogen) and recombinant epidermal growth factor (EGF) (0.25 ng/mL; Invitrogen). The cultures were incubated at 37°C in a humidified atmosphere with 5% CO2 until 80% confluence and then stored frozen in liquid nitrogen until use. Finally, keratinocytes were seeded in sterile 24-well culture plates at 10^5 cells/well in K-SFM supplemented with bovine pituitary extract and EGF and cultured to 80% confluence. Cells were then starved overnight in K-SFM alone before stimulation.
Primary keratinocytes were cultured in 96-well plates at 4 × 10^4 cells per well in 0.1 mL K-SFM (Invitrogen) up to 80% confluence before being treated with various concentrations of ModoCath peptides for 24 h. Cell viability was assessed using the cell proliferation kit II (XTT; Roche, Basel, Switzerland) in accordance with the manufacturer’s protocol. The XTT labeling mixture was added after 24 h of incubation in the absence or presence of peptides at the indicated concentrations.

Series [2] deals with Pseudomonas aeruginosa ATCC 27853. As to the kind of experiment: microbe, parasite or virus in culture. The note with it: P. aeruginosa ATCC 27853; MHB, 37°C 6 h + 2 h; triplicate. Here is the method: (§1) Peptides corresponding to the predicted antimicrobial regions of ModoCath1 (ΔModoCath1, N-VKRTKRGARRGL […]-C), ModoCath5 (ΔModoCath5, N-[…]-C), ModoCath6 (ΔModoCath6, N-[…]-C) and PMAP36 (N-[…] PLGCG-C) were synthesized via solid-phase peptide synthesis and purified via high-performance liquid chromatography using a commercial service (GenScript, Piscataway Township, NJ, United States). The MIC of synthesized peptides was determined against a panel of bacteria comprising 3 gram-positive strains, Staphylococcus aureus ATCC 6538 (ATCC, Manassas, VA, United States), Bacillus cereus ATCC 10876, and Enterococcus faecalis ATCC 29212, and 3 gram-negative strains, Escherichia coli ATCC 25922, Pseudomonas aeruginosa ATCC 27853, and Salmonella typhimurium ATCC 14028. Ampicillin (Sigma Aldrich, St. Louis, MO, United States) and gentamicin sulfate (Sigma Aldrich) were used as controls for antimicrobial activity. The MIC was determined using a colorimetric method specified by the Microbial Viability Assay Kit-WST (Dojindo, Kumamoto, Japan) in accordance with the manufacturer’s protocol and the Clinical and Laboratory Standards Institute (CLSI) guidelines (2018). Briefly, four colonies of each bacterium were inoculated into 5 mL Luria-Bertani (LB) broth medium at 37°C for 4 to 6 h. The cells were washed with sterile saline (0.9% NaCl) twice and seeded in a single well of a 96-well plate at the cell density of 10^5 CFU/well. Subsequently, 180 μL/well of fresh Mueller-Hinton broth (MHB) was added to the plate. Different concentrations of each peptide and reference antibiotics were serially diluted in 10 μL of MHB and added to each well. The plate was incubated at 37°C for 6 h. Cation-adjusted MH broth (CAMHB) was used to culture E. faecalis. Subsequently, 10 μL of the coloring reagent was added, and cells were incubated at 37°C for 2 h. UV absorbance was measured for each well at 450 nm, using a microplate spectrophotometer (xMark spectrophotometer; Bio-Rad, Hercules, CA, United States). MIC values were determined when the difference in the optical density (OD) between treatments and blanks (media and coloring reagent only) decreased to < 0.05. Experiments were conducted in triplicate. […] The pH conditions were achieved by using acetic acid (Sigma Aldrich).

The test system of series [3] is Staphylococcus aureus ATCC 6538. As to the kind of experiment: microbe, parasite or virus in culture. The note with it: S. aureus ATCC 6538; MHB, 37°C 6 h + 2 h; triplicate. Here is the method:
as §1

Series [4] concerns Enterococcus faecalis ATCC 29212. As to the kind of experiment: microbe, parasite or virus in culture. The note with it: E. faecalis ATCC 29212; CAMHB, 37°C 6 h + 2 h; triplicate. As to the method:
as §1

Series [5] concerns Bacillus cereus ATCC 10876. As to the kind of experiment: microbe, parasite or virus in culture. The note with it: B. cereus ATCC 10876; MHB, 37°C 6 h + 2 h; triplicate. As to the method:
as §1

The test system of series [6] is Salmonella typhimurium ATCC 14028. As to the kind of experiment: microbe, parasite or virus in culture. The note with it: S. typhimurium ATCC 14028; MHB, 37°C 6 h + 2 h; triplicate. As to the method:
as §1

The test system of series [7] is Escherichia coli ATCC 25922. As to the kind of experiment: microbe, parasite or virus in culture. The note with it: E. coli ATCC 25922. As to the method: as §1
Where [8] appears, read: Control: MHB at pH 7.5 without any additives, value in brackets.
The mark [9] stands for this setting: value in brackets, MHB, 37°C 6 h + 2 h, triplicate.

No end group written: not given here.

“WYQLIRTFGNLIHQKYRKLLEAYRKLRD [ΔModoCath5]”: the “Cell viability ± SD” value in series [1] (8 μg/mL) was found to be 98.1 ± 0.6%; in series [1] (16 μg/mL) it was 96.2 ± 3.5%; in series [1] (32 μg/mL) it was 79.1 ± 13.0%; in series [1] (64 μg/mL) it was 48.9 ± 15.5%. For the same sequence, the MIC in series [2] is > 32(8.83) μg/mL; in series [3] it was 1.5 (0.41) μg/mL; in series [4], 2 (0.55) μg/mL; in series [5], 6 (1.66) μg/mL; in series [6] it was > 32(8.83) μg/mL; in series [7] (1mM MgCl2, value in brackets) it was 2.48 µM. In addition, the MIC was 2.07 µM in series [7] (150mM NaCl, value in brackets); 1.38 µM in series [7] (setting [8]); 0.69 µM in series [7] (pH 6, value in brackets); 1.38 µM in series [7] (pH 7, value in brackets); 1.38 µM in series [7] (setting [9]).

For the sequence “VKRTKRGARRGLTKVLKKIFGSIVKKAVSKGV [ΔModoCath1]”, the “Cell viability ± SD” value in series [1] (8 μg/mL) stood at 97.1 ± 2.9%; in series [1] (16 μg/mL), 91.4 ± 1.6%; in series [1] (32 μg/mL) it was 56.2 ± 8.4%; in series [1] (64 μg/mL), 5.8 ± 3.7%. The MIC in series [2] is 2 (0.57) μg/mL; in series [3], 3 (0.85) μg/mL; in series [4], 2 (0.57) μg/mL; in series [5] it was 30 (8.5) μg/mL; in series [6] it was 2 (0.57) μg/mL; in series [7] (1mM MgCl2, value in brackets), 0.14 µM. The MIC came out at 0.29 µM in series [7] (2.5mM CaCl2, value in brackets); 0.14 µM in series [7] (4.5mM KCl, value in brackets); 0.14 µM in series [7] (150mM NaCl, value in brackets); 0.21 µM in series [7] (setting [8]); 0.21 µM in series [7] (pH 7, value in brackets); 0.21 µM in series [7] (setting [9]).

With “VRRSKRGIKVPSFVKKVLKDVVSESIS [ΔModoCath6]”, the “Cell viability ± SD” value in series [1] (8 μg/mL) was 98.0 ± 1.6%; in series [1] (16 μg/mL), 100.3 ± 1.3%; in series [1] (32 μg/mL), 101.0 ± 2.6%; in series [1] (64 μg/mL), 89.2 ± 7.2%. The MIC in series [2] is reported as > 32(10.51) μg/mL; in series [3], > 32(10.51) μg/mL; in series [4], > 32(10.51) μg/mL; in series [5], > 32(10.51) μg/mL; in series [6], > 32(10.51) μg/mL; in series [7] (MHB, 10^5 CFU/well, 37°C 6 h + 2 h with coloring reagent, OD 450 nm, triplicate), 5 (1.64) μg/mL.
